For one assay, the target named is T1, Progesterone receptor (Homo sapiens, UniProt P06401).
T1 sequence (P06401 whole entry): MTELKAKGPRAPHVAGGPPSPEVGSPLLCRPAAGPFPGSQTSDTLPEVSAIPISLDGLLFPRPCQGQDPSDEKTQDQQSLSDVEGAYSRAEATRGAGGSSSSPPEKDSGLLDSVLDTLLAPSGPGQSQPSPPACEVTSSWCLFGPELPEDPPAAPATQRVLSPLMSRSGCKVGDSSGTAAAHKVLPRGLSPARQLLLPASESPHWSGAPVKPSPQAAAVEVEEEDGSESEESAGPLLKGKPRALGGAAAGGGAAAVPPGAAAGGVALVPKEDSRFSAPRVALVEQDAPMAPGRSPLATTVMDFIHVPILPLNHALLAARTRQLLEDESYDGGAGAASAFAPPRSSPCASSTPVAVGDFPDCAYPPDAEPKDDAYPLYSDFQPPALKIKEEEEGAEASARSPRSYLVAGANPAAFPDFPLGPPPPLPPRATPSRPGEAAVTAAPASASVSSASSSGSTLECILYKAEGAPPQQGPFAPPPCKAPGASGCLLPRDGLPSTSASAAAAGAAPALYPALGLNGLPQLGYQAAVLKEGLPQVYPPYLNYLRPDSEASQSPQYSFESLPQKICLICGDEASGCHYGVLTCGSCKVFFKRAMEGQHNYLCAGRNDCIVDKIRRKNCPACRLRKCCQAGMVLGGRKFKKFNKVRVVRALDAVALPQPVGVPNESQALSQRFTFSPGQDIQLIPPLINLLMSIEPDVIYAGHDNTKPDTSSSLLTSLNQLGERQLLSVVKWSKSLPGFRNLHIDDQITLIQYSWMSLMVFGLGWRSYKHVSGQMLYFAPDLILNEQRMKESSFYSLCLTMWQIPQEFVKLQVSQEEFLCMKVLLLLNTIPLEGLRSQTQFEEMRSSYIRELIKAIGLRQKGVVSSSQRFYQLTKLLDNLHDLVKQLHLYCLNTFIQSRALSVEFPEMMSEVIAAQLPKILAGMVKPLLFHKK
Type of assay: functional.

Assay [1] addresses 3',5'-cyclic-AMP phosphodiesterase 4D (Homo sapiens, UniProt Q08499). Type of assay: functional.
The target of assay [2] is T2, Alpha-2A adrenergic receptor (Homo sapiens, UniProt P08913).
T2 sequence (P08913 whole entry): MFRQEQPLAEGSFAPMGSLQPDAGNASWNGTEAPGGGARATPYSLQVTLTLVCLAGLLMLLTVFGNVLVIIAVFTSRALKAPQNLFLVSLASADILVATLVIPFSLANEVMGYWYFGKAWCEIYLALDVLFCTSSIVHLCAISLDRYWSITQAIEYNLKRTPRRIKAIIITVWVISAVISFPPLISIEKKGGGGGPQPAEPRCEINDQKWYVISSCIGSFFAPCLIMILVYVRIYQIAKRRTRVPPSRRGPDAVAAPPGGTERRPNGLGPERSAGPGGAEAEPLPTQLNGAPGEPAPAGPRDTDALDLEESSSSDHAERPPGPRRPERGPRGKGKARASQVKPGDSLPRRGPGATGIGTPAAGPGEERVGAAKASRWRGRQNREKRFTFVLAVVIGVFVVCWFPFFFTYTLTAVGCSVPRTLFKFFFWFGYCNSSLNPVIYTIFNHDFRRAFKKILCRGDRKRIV
Type of assay: functional, cell-based.

In assay [3] the target is Voltage-dependent L-type calcium channel subunit alpha-1C (Rattus norvegicus, UniProt P22002). Type of assay: functional.
Voltage-dependent L-type calcium channel subunit alpha-1C, sequence (P22002 whole entry): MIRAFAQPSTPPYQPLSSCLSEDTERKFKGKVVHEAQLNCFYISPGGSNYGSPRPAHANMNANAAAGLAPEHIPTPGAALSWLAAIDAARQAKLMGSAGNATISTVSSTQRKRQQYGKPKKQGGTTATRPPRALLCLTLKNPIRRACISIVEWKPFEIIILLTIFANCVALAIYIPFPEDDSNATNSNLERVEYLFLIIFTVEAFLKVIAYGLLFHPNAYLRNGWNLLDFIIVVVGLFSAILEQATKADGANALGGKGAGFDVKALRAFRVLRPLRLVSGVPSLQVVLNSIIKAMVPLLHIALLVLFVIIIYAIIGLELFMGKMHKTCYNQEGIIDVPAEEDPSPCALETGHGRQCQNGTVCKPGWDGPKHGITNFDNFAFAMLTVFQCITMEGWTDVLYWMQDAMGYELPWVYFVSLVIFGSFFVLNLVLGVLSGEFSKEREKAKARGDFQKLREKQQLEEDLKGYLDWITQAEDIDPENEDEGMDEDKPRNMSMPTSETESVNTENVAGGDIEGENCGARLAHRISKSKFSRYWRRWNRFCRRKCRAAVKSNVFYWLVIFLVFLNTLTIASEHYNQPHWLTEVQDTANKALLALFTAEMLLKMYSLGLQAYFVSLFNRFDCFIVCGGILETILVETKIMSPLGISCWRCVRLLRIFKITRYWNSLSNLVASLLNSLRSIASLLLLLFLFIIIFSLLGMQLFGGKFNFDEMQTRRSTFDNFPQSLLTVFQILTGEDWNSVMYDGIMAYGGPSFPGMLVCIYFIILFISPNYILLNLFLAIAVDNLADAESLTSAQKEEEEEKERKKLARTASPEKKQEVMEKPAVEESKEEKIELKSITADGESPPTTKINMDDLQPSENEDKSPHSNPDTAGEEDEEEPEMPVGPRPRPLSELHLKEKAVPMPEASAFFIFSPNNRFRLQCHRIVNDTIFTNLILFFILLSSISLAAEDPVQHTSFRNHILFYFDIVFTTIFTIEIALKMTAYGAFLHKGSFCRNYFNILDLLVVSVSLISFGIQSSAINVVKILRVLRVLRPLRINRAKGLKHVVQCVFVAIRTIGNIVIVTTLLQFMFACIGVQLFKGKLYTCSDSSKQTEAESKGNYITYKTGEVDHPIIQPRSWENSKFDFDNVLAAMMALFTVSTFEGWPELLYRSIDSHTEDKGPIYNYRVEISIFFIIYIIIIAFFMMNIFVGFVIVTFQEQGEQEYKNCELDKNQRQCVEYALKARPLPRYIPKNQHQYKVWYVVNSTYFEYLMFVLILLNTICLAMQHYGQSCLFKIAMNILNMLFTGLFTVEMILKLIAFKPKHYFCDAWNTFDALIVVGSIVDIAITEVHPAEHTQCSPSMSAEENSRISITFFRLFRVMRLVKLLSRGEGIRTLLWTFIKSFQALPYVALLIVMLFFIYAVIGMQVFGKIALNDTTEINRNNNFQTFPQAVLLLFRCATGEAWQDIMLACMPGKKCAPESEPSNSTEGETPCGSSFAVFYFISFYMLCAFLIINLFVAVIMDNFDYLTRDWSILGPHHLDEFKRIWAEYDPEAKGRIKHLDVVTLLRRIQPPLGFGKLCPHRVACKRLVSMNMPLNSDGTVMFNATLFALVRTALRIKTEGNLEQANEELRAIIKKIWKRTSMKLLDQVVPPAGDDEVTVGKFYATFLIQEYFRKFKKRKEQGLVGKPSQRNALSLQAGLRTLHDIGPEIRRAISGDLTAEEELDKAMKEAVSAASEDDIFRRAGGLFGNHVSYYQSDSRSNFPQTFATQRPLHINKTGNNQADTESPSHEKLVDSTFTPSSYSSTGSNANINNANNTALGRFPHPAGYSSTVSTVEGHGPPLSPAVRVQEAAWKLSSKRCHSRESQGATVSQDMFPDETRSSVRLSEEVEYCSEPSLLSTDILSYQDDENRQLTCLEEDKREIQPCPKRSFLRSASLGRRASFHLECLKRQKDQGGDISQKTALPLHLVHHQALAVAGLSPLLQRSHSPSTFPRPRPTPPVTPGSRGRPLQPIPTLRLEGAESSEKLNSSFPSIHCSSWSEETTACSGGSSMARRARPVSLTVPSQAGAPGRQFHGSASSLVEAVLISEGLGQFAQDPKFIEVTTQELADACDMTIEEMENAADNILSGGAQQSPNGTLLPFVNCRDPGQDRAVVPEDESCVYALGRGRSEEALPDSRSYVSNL
The target in assay [4] is Muscarinic acetylcholine receptor M3 (Homo sapiens, UniProt P20309).
Muscarinic acetylcholine receptor M3, sequence (P20309 whole entry): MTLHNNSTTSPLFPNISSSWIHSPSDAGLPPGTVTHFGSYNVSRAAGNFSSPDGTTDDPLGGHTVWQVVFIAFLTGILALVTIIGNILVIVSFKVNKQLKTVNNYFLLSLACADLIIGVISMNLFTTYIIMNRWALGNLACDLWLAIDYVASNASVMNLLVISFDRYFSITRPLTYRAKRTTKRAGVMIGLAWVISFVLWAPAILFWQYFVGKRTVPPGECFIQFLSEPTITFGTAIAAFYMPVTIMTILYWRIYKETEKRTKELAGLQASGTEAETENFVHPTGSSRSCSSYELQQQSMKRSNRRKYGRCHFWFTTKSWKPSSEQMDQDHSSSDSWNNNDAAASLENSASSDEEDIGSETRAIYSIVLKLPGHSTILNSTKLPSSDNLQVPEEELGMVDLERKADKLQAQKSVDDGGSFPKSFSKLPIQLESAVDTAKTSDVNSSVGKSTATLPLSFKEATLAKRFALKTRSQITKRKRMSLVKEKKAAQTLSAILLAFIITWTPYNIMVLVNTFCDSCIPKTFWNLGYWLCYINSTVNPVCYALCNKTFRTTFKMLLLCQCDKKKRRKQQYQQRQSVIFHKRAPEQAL
The target of assay [5] is T3, Neuropeptide Y receptor type 1 (Homo sapiens, UniProt P25929).
T3 sequence (P25929 whole entry): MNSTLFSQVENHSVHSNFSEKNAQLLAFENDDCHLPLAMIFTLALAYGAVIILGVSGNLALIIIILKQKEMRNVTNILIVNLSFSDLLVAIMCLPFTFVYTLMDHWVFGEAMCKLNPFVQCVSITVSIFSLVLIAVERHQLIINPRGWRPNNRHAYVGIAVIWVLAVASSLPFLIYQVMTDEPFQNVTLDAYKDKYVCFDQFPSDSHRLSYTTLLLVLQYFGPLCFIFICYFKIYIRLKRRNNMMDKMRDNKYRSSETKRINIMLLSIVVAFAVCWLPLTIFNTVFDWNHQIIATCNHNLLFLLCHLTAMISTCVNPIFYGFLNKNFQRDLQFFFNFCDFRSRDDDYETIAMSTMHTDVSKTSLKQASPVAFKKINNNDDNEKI

Molecules are shown by their SMILES. Values joined by “and” are separate entries in the source; they are usually repeats but may differ in a detail not shown here. Identical values can stand only once. A value given as a limit tells only on which side of the number the result lay.
Note: assay procedure not described here.

3',5'-cyclic-AMP phosphodiesterase 4D, sequence (Q08499 whole entry): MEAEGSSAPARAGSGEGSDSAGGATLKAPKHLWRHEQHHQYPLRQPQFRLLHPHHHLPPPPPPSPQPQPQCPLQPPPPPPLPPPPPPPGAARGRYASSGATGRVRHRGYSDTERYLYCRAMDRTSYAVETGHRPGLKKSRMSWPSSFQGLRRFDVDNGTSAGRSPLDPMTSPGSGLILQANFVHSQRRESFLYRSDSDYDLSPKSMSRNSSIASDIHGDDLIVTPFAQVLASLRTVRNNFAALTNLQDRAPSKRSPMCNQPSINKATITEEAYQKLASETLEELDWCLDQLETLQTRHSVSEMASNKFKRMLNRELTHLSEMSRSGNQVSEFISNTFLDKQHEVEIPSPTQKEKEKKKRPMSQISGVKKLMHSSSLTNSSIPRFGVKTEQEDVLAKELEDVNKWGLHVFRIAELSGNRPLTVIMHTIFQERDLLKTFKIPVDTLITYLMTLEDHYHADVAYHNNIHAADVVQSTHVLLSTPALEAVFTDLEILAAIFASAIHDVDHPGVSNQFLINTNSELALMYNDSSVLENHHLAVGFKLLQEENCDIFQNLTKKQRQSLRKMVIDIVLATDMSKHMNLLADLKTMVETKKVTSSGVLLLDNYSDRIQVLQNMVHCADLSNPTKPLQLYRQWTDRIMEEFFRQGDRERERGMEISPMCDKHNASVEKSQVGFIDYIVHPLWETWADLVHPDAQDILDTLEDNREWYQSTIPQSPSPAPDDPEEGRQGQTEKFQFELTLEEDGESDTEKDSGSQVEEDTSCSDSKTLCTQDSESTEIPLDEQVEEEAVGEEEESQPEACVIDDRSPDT

On to `C[C@H](CSC(=O)c1ccccc1)C(=O)N1C[C@@H](Sc2ccccc2)C[C@H]1C(=O)O` [ZOFENOPRIL], for which the AC50 (commonly the midpoint of the concentration-response curve, whichever way the signal moves) was over 10 µM at Progesterone receptor; over 10 µM in assay [1]; over 10 µM in assay [2]; over 10 µM in assay [3]; over 30 µM in assay [4]; over 10 µM in assay [5].
Consider `C[C@]1(O)CC[C@H]2[C@@H]3CCC4=CC(=O)CC[C@]4(C)[C@@]3(F)[C@@H](O)C[C@@]21C` [FLUOXYMESTERONE], for which the AC50 in assay [1] is over 30 µM; in assay [2], over 10 µM; in assay [3], over 10 µM; in assay [4], over 30 µM; in assay [5] it was over 10 µM.
As to `C=CCC1(C(C)CC)C(=O)NC(=O)NC1=O` (configuration not stated) [TALBUTAL], the concentration at half-maximal activity (AC50) on Progesterone receptor was over 10 µM; in assay [1], over 30 µM; in assay [2], over 10 µM; in assay [3], over 10 µM; in assay [4], over 30 µM; in assay [5], over 10 µM.
With `CCCN(CCC)C(=O)C(CCC(=O)O)NC(=O)c1ccccc1` (configuration not stated) [PROGLUMIDE], the half-maximal activity concentration (AC50) at Progesterone receptor was over 30 µM; in assay [1], over 30 µM; in assay [2], over 10 µM; in assay [3] it was over 10 µM; in assay [5], over 30 µM.
Take `CO[C@@H]1[C@@H](O[C@@H]2O[C@H](C)[C@@H](O[C@H]3C[C@@](C)(O)[C@@H](OC(=O)CC(C)C)[C@H](C)O3)[C@H](N(C)C)[C@H]2O)[C@@H](CC=O)C[C@@H](C)[C@@H](O)/C=C/C=C/C[C@@H](C)OC(=O)C[C@H]1OC(C)=O` [JOSAMYCIN]: the AC50 on Progesterone receptor is over 10 µM; in assay [1], over 30 µM; in assay [2], over 10 µM; in assay [3] it was over 10 µM; in assay [4], over 30 µM; in assay [5], over 10 µM.
For `CCCC(=O)O[C@]1(C(=O)CO)CC[C@H]2[C@@H]3CCC4=CC(=O)CC[C@]4(C)[C@H]3[C@@H](O)C[C@@]21C` [HYDROCORTISONE BUTYRATE], the concentration at half-maximal activity (AC50) was over 30 µM in assay [1]; over 10 µM in assay [2]; over 10 µM in assay [3]; over 30 µM in assay [4]; over 10 µM in assay [5].
`C[C@](N)(Cc1ccc(O)c(O)c1)C(=O)O` [METHYLDOPA]: the AC50 was over 30 µM at Progesterone receptor; over 30 µM in assay [1]; over 10 µM in assay [2]; over 10 µM in assay [3]; over 10 µM in assay [5].
As to `CC=CC(=O)N(CC)c1ccccc1C`, the half-maximal activity concentration (AC50) was over 10 µM on Progesterone receptor; over 30 µM in assay [1]; over 10 µM in assay [2]; over 10 µM in assay [3]; over 10 µM in assay [5].
As for `O=C(NCCN1CCOCC1)c1ccc(Cl)cc1` [MOCLOBEMIDE], the AC50 was over 10 µM on Progesterone receptor; over 30 µM in assay [1]; over 10 µM in assay [2]; over 10 µM in assay [3]; over 10 µM in assay [5].
In the case of `O=C(O)CCCCCCCC(=O)O` [AZELAIC ACID], the concentration at half-maximal activity (AC50) was over 10 µM on Progesterone receptor; over 30 µM in assay [1]; over 10 µM in assay [2]; over 10 µM in assay [3]; over 30 µM in assay [4]; over 10 µM in assay [5].
With `C[C@]12CC[C@H]3[C@@H](CCC4=CC(=O)CC[C@@]43C)[C@@H]1CC[C@@H]2O` [TESTOSTERONE], the concentration at half-maximal activity (AC50) in assay [1] was over 30 µM; in assay [2] it was over 10 µM; in assay [3], over 10 µM; in assay [5], over 10 µM.
Consider `Cc1ccc(S(=O)(=O)NC(=O)NN2CC3CCCC3C2)cc1` (configuration not stated) [GLICLAZIDE], for which the concentration at half-maximal activity (AC50) is over 10 µM on Progesterone receptor; over 30 µM in assay [1]; over 10 µM in assay [2]; over 10 µM in assay [3]; over 10 µM in assay [5].
With `CC1(C)O[C@@H]2C[C@H]3[C@@H]4CCC5=CC(=O)C=C[C@]5(C)[C@H]4[C@@H](O)C[C@]3(C)[C@]2(C(=O)CO)O1` [DESONIDE], the AC50 in assay [1] was over 30 µM; in assay [2], over 10 µM; in assay [3] it was over 10 µM; in assay [4], over 30 µM; in assay [5], over 10 µM.
With `CC(C)Cn1cnc2c(N)nc3ccccc3c21` [IMIQUIMOD], the concentration at half-maximal activity (AC50) on Progesterone receptor is over 10 µM; in assay [1], 4.03 µM; in assay [2] it was over 10 µM; in assay [3], over 10 µM; in assay [5], over 10 µM.
In the case of `O=C(O)C[C@H](O)C[C@H](O)/C=C/c1c(C2CC2)nc2ccccc2c1-c1ccc(F)cc1` [PITAVASTATIN], the AC50 on Progesterone receptor is over 30 µM; in assay [1] it was 0.93 µM and 0.67 µM; in assay [2], over 10 µM; in assay [3], over 10 µM; in assay [4] it was over 30 µM; in assay [5], over 10 µM.
Consider `CN1C(=O)OC(C)(C)C1=O` [TRIMETHADIONE], for which the half-maximal activity concentration (AC50) is over 10 µM on Progesterone receptor; over 30 µM in assay [1]; over 10 µM in assay [2]; over 10 µM in assay [3]; over 10 µM in assay [5].
As to `O=C(O)[C@H](CC(=O)N1C[C@H]2CCCC[C@H]2C1)Cc1ccccc1` [MITIGLINIDE], the AC50 on Progesterone receptor is over 10 µM; in assay [1] it was over 30 µM; in assay [2] it was over 10 µM; in assay [3], over 10 µM; in assay [4], over 30 µM; in assay [5], over 10 µM.
For the molecule `C[C@H](N)[C@H](O)c1cccc(O)c1` [METARAMINOL], the concentration at half-maximal activity (AC50) is over 10 µM on Progesterone receptor; over 30 µM in assay [1]; over 10 µM in assay [2]; over 10 µM in assay [3]; over 30 µM in assay [4]; over 10 µM in assay [5].
Turning to `C#C[C@]1(O)CC[C@H]2[C@@H]3CCC4=Cc5oncc5C[C@]4(C)[C@H]3CC[C@@]21C` [DANAZOL], the concentration at half-maximal activity (AC50) in assay [2], in assay [3] and in assay [5] was over 10 µM each time.
In the case of `C#C[C@]1(O)CC[C@H]2[C@@H]3CCc4cc(OC5CCCC5)ccc4[C@H]3CC[C@@]21C` [QUINESTROL], the concentration at half-maximal activity (AC50) in assay [1] is over 30 µM; in assay [2], over 10 µM; in assay [3], over 10 µM; in assay [4], over 30 µM; in assay [5], over 10 µM.
On to `NCC[C@H](O)C(=O)N[C@@H]1C[C@H](N)[C@@H](O[C@H]2O[C@H](CN)[C@@H](O)[C@H](O)[C@H]2O)[C@H](O)[C@H]1O[C@H]1O[C@H](CO)[C@@H](O)[C@H](N)[C@H]1O` [AMIKACIN], for which the concentration at half-maximal activity (AC50) on Progesterone receptor was over 10 µM; in assay [1], over 30 µM; in assay [2], over 10 µM; in assay [3] it was over 10 µM; in assay [5], over 10 µM.
As for `CC(=O)O[C@H]1CC[C@@]2(C)C(=CC[C@@H]3[C@@H]2CC[C@]2(C)C(c4cccnc4)=CC[C@@H]32)C1` [ABIRATERONE ACETATE], the AC50 (at Progesterone receptor; in assay [1]; in assay [2]; in assay [4]) was over 30 µM throughout.
Take `C/C(O)=C(\C#N)C(=O)Nc1ccc(C(F)(F)F)cc1` [TERIFLUNOMIDE]: the concentration at half-maximal activity (AC50) (on Progesterone receptor; in assay [1]; in assay [2]; in assay [4]) was over 30 µM each time.

Source of the values: ChEMBL document CHEMBL5291721, “A preclinical secondary pharmacology resource illuminates target-adverse drug reaction associations of marketed drugs” (Nat Commun, 2023).
